These results are taken from US20060057657A1, “Stem cell selection and differentiation” (Oregon Health & Science University Technology & Research …, priority 2002, published 2006).

Common to all, as to assay type: cell-based, mouse
In test [1] the test system is ES cells. Briefly: ES cell proliferation rate / doubling time under treatment. How it is done: If grown in galactose as the sole carbon source, a sub-population of cells need to engage in active oxidative phosphorylation to convert galactose to glucose. In one embodiment, ES cells are selected in galactose-containing culture medium for an incubation period of about four days.
(§1) In order to establish the relationship between ES cell JC-1 fluorescence, respiration and differentiation permissiveness, cells may be grown under hypoxic (<2% oxygen) or normnoxic conditions and assayed for JC-1 red/green ratio, oxygen consumption and lactate secretion, proliferation rate, ES cell self-renewal (STAT3 activity), and differentiation permissiveness by chimeric assays. ES cells with high mitochondrial membrane potential (as shown by high JC-1 red/green ratio) display low differentiation permissiveness, while those with low mitochondrial membrane potential (JC-1 green) display high differentiation permissiveness. […] ES cells on galactose also consume about 50% more oxygen than those sustained on glucose. ES cell proliferation rates for control and hypoxic cells (both with and without LIF) may be similar. […] STAT3 activity may be similar for normoxic and hypoxic cells.

Test [2] relates to ES cells. Briefly: Lactate secretion of ES cells. The following applies: after 24 hours; normoxic and hypoxic ES cells about 80 mg/dl.
Source text: as §1

Test [3] has as its system ES cells. The experiment in a line: JC-1 red/green fluorescence (mitochondrial membrane potential) by flow analysis. The following applies: galactose-containing culture medium, about four days.
Procedure: In order to assess if cells are primarily using oxidative phosphorylation or glycolysis, mitochondrial inner-membrane potential can be assayed by JC-1 fluorescence (1 ug/ml) in ES cells grown in both the presence (undifferentiated) and absence (differentiation) of LIF.
The cells of Example 1 were stained with 1 μg/ml 5,5′,6,6′-tetrachloro-1,1′,3,3′-tetraethyl-benzimidazolylcarbocyanine iodide (JC-1, Molecular Probes, Eugene, Oreg.) and flow cytometry was performed using a FACSCalibur flow cytometer (Becton Dickinson, San Jose, Calif.). Cells were stained as above and sorted using a FACSVantage SE cell sorter (Becton Dickinson).
For test [4], the system named is ES cells. The experiment in a line: Oxygen consumption of ES cells. The note with it: ES cells on galactose.
Source text: as §1

The test system of test [5] is ES cells. The experiment in a line: JC-1 fluorescence sensitivity to MDR inhibitors (JC-1 staining and flow cytometry). The note with it: CsA 20 μM, verapamil 200 μM, reserpine 10 μM. On the procedure: ES cells were maintained in ES cell media consisting of DMEM (no pyruvate, high glucose) (Gibco-BRL), 15% fetal calf serum (FCS) (Hyclone), and supplements (as described in Robertson, E. J. (1987) IRL Press Limited, Oxford, page 71-112). Supplemental Leukemia Inhibitory Factor (LIF) (1:1000 dilution) was prepared by transfecting COS-7 cells (ATCC) with a LIF expression vector, pCAGGS-LIF, then collecting and testing the supernatant 48 hours later (as described in Smith, A. (1991) Journal of Tissue Culture Methods 13:89-94). Irradiated mouse embryonic fibroblasts (MEFs) were derived from d13 embryos for use as feeder cells (as described in Robertson (1987) (supra)). […]
For MDR inhibitor dose response assays, cells were trypsinized for 15 minutes, quenched with ES cell media, triturated to a single cell suspension, and centrifuged at 1000 rpm for 5 minutes. […] Following centrifugation, cells were washed […] with cold HBSS, centrifuged and resuspended in cold PBS at the same concentration, placed on ice, and analyzed within 60 minutes (as described in Cossarizza et al. (1993) Biochem. Biophys. Res. Commun. 197:40-45). […]
Using the cationic fluorescent dye, JC-1, functionally distinct populations of ES cells were identified. […] Generally, less than 5% of the cells maintained a “JC-1 green only” fluorescence profile when treated with any of these inhibitors. […]
In general terms: A flow cytometer gives signals particle by particle.

Turning to `O=C[C@H](O)[C@@H](O)[C@@H](O)[C@H](O)CO` [galactose], the “increase of doubling time” value in the test with ES cells [1] (galactose-containing culture medium, about four days) is “about 25%”. In addition, the doubling time with ES cells [1] (galactose-containing culture medium, about four days, 16 hours under standard conditions) was found to be 20 h. The compound further yielded a lactate secretion in the test with ES cells [2] of less than 10 mg/dL. Further, the “sub-population of ES cells showing JC-1 red fluorescence” value in the test with ES cells [3] is given as “slightly increased”. Besides, the “oxygen consumption, more than cells sustained on glucose” value in the test on ES cells [4] is “about 50%”. `O=CC[C@@H](O)[C@H](O)[C@H](O)CO` [2-dG, 2-deoxy glucose]: in the test with ES cells [1] (2-deoxy glucose 0.5 mM), the “reduction of proliferation rate” value is not above 3 fold.

As for `CC[C@H]1/C=C/C=C/C[C@@H](C)[C@H](O)[C@@](C)(O)C(=O)[C@@H](C)[C@H](O)[C@@H](C)C(=O)[C@@H](C)[C@H](O)[C@@H](C)/C=C/C(=O)O[C@@H]2[C@H](C)[C@H](CC1)O[C@]1(CC[C@H](C)[C@H](C[C@@H](C)O)O1)[C@H]2C` [oligomycin], the “effect on proliferation rates” value in the test on ES cells [1] (oligomycin 3 μM or FCCP+ oligomycin) was “dramatically reduces proliferation rates”. Consider `COC(=O)[C@H]1[C@H]2C[C@@H]3c4[nH]c5cc(OC)ccc5c4CCN3C[C@H]2C[C@@H](OC(=O)c2cc(OC)c(OC)c(OC)c2)[C@@H]1OC` [reserpine], for which, in the test on ES cells [5], the “shift of JC-1 fluorescence on addition of inhibitor” value is on record as “dramatic shift of the majority of cells towards red fluorescence”.

As for `COc1ccc(CCN(C)CCCC(C#N)(c2ccc(OC)c(OC)c2)C(C)C)cc1OC` (stereo not drawn) [verapamil], the “shift of JC-1 fluorescence on addition of inhibitor” value with ES cells [5] is given as “dramatic shift of the majority of cells towards red fluorescence”.
